Measured values reported in publication PMC4607367, “Gedunin and Azadiradione: Human Pancreatic Alpha-Amylase Inhibiting Limonoids from Neem (Azadirachta indica) as Anti-Diabetic Agents” (PLoS ONE, 2015).

What was measured:
[1] = molecular target: T1, Porcine pancreatic α-amylase (PPA) (Sus scrofa, UniProt P00690); assay: Porcine pancreatic α-amylase inhibition assay, chromogenic DNSA method (primary screening); assay type: biochemical; conditions: starch 1% w/v, pH 6.9, 37°C
T1 construct: purchased SRL, Mumbai, India
T1 sequence (P00690 16-511): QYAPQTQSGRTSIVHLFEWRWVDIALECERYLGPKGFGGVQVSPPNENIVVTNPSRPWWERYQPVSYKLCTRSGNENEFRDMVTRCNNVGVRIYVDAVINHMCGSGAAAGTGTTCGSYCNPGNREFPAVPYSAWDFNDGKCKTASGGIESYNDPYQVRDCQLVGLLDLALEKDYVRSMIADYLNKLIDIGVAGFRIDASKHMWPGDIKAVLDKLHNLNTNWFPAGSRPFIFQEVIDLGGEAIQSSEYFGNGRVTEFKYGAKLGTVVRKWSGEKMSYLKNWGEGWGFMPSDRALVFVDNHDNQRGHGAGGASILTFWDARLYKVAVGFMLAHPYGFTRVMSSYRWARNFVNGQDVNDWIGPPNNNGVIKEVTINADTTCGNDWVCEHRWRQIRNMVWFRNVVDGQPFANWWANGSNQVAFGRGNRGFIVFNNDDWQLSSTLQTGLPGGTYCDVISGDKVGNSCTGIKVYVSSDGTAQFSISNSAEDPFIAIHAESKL
Procedure: The inhibition assay was performed using the chromogenic DNSA method. PPA was used for preliminary screening of α-amylase inhibitors. […] Moreover a high degree gene sequence similarity (~ 90%) exists between human salivary α-amylase (HSA) and PPA as reported by (Buisson et al 1987). Brayer et al (1995) have reported 97% primary sequence similarity between human salivary and human pancreatic α-amylases and a 70% structural similarity between PPA and HPA [11]. Thus, a high degree of similarity between PPA and HPA allows us to use it as the enzyme for screening inhibitors.
In brief, the total assay mixture consisting of 0.02 M sodium phosphate buffer, pH6.9, (containing 6 mM NaCl), 0.2–0.25 U of PPA and inhibitors (13.8–214.3 μM) in DMSO was incubated at 37°C for 10 min. After pre-incubation, the substrate starch (1%, w/v) solution was added to the reaction mixture and further incubated for 15 min. The control PPA (0.21 U) without any inhibitor represented 100% enzyme activity. One unit of enzyme activity is defined as the amount of enzyme required to release one micromole of maltose from starch/maltopentaose per min under the assay conditions. The other quantifiers calculated were: % Relative enzyme activity = (enzyme activity of test/enzyme activity of control)*100. % inhibition = (100 − % relative enzyme activity).
The IC50 values were determined from plots of percent inhibition versus inhibitor concentration and calculated by logarithmic regression analysis. To eliminate the absorbance produced by the compound, appropriate controls were included. The known PPA/HPA inhibitor acarbose was used as a positive control at a concentration range of 10–50 μM.

[2] = molecular target: T2, secreted pancreatic α-amylase of AR42J cells (Rattus norvegicus, UniProt P00689); assay: Bioactivity: inhibition of secreted pancreatic α-amylase in dexamethasone-induced AR42J cells, incl. starch load test (DNSA); assay type: cell-based; conditions: AR42J
T2 construct: host or cells: AR42J rat pancreatic acinar cells, induced with 10 nM dexamethasone
T2 sequence (P00689 16-508): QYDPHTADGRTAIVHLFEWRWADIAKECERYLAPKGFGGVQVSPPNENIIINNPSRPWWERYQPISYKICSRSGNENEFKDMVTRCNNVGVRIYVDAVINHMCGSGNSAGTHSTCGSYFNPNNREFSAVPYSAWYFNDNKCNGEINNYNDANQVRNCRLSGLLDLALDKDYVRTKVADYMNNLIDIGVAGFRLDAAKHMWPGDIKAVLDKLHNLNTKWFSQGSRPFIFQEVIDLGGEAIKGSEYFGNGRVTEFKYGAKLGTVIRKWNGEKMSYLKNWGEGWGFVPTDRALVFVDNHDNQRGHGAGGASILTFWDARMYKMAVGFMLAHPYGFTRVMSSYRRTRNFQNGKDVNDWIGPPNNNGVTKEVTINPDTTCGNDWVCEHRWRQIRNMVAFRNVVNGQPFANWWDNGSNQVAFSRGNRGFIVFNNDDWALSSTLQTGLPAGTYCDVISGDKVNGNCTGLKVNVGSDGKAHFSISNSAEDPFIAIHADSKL
Excerpt: Appropriate medium and DMSO controls were simultaneously set up.

[3] = molecular target: T3, Human pancreatic α-amylase (HPA) (Homo sapiens, UniProt P04746); assay: Human pancreatic α-amylase inhibition and stoichiometry (DNSA); assay type: biochemical; conditions: percentage inhibition versus molar ratio of HPA and inhibitor; HPA 14.85 μM
T3 construct: purchased Sigma Aldrich, USA
T3 sequence (P04746 16-511): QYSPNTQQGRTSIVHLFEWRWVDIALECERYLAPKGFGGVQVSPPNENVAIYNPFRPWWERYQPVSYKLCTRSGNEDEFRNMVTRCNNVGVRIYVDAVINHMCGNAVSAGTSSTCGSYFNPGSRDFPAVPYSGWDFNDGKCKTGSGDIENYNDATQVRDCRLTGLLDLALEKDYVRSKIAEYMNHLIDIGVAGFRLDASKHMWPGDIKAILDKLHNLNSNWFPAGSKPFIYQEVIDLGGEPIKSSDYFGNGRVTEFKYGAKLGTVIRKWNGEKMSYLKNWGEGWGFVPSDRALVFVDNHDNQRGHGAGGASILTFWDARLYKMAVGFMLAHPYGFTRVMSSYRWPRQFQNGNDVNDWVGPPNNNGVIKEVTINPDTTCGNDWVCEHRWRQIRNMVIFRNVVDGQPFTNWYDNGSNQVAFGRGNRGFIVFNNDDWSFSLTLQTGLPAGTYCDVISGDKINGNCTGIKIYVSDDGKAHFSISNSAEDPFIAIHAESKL
Excerpt: The control HPA (0.25 U) without inhibitors represented 100% enzyme activity.

[4] = molecular target: T3, Human pancreatic α-amylase (HPA); assay: HPA inhibition kinetics (Michaelis-Menten, Lineweaver-Burk, secondary plots); assay type: biochemical
Procedure: The mode of inhibition of HPA by the lead inhibitors azadiradione and gedunin were determined using Michaelis-Menton and Lineweaver-Burk equations. Starch (1–5mg ml^-1) and maltopentaose (0.05–0.4mM) were incubated with inhibitors-HPA for 10 and 2.5 min, respectively and the residual enzyme activity determined by DNSA method for starch and Nelson-Somogyi’s method for maltopentaose.The inhibitor constants(K i) were determined on the basis of mode of inhibition.

[5] = molecular target: T3, Human pancreatic α-amylase (HPA); assay: Ligand binding to HPA by fluorescence quenching titration, thermodynamic parameters
Procedure: Ligand binding studies using fluorescence measurements of HPA were carried as described in our earlier report. […] Non-linear and linear regression analyses were used to analyze the data.
The thermodynamic parameters, association constants (K a), dissociation constant (K d) and Gibbs free energy (ΔG°) of binding for azadiradione and gedunin were determined at various temperatures 25°C to 60°C by fluorescence quenching studies.

[6] = tested on: AR42J rat pancreatic acinar cells; conditions: 24 h, 3.5 μM
Procedure: (§1) Cells were seeded at 2×10^4 cells well^-1 onto 96 wells culture dish. […] Appropriate medium and DMSO controls were simultaneously set up. […] At the end of 24 h incubation period the culture media was removed from the samples and fresh culture media (100 μl) containing 20 μl of MTT tetrazolium bromide (5 mg ml^-1) added and incubated for 3 h at 37°C. Metabolically active cells reduce MTT to insoluble purple formazan dye crystals, which were dissolved by addition of 300 μl DMSO solution at the end of the incubation period and quantitated at 550 nm [34].

[7] = Cytotoxicity in AR42J cell line (MTT); conditions: rat, AR42J pancreatic acinar cells
Procedure: as §1

[8] = tested on: AR42J rat pancreatic acinar cells; assay: Cytotoxicity in AR42J cell line (MTT); conditions: AR42J; azadiradione 3.5 μM, gedunin 3.3 μM (Fig 3)
Procedure: as §1

[9] = linear van't Hoff plot, 298–333 K

In the case of `CC(=O)O[C@@H]1C[C@H]2C(C)(C)C(=O)C=C[C@]2(C)[C@H]2CC[C@]3(C)C(=CC(=O)[C@H]3c3ccoc3)[C@@]21C` [azadiradione], the IC50 [1] is reported as 138 µM, the “Secreted amylase inhibition in starch load test” value ([2]; 0.5% (w/v) starch, up to two hours) is reported as 22.9% and the “Amylase inhibition at the cytotoxic IC50 concentration” value ([2]; 24 h, at 11.1, 13.4 and 4.1 μM respectively) is reported as 70.1%. For the same compound, the inhibition at 3.5 µM ([2]; AR-42J, 3.5 μM) was 41.8%, the “Stoichiometry of HPA inactivation” value [3] was 0.66 and the Ki ([4]; maltopentaose as substrate, secondary plots) was 42.2 µM. For the same compound, the “Apparent K i ′” value ([4]; starch as substrate, secondary plots) was 75.8 µM, the “Mode of HPA inhibition” value ([4]; substrates starch and maltopentaose, Lineweaver-Burk) was “mixed” and the “-ΔG°” value ([5]; 298 K) was 21.25 k J mol^-1. The K a ([5]; 298 K) was 4300 M⁻¹, the Kd ([5]; 298 K) was 200 ± 3 µM and the “-ΔG°” value ([5]; 303 K) was 20.88 k J mol^-1. The K a ([5]; 303 K) was 3900 M⁻¹, the Kd ([5]; 303 K) was 200 ± 1 µM and the “-ΔG°” value ([5]; 308 K) was 20.27 k J mol^-1. For the same compound, the K a ([5]; 308 K) was 2700 M⁻¹, the Kd ([5]; 308 K) was 300 ± 5 µM and the “-ΔG°” value ([5]; 313 K) was 20.29 k J mol^-1. The K a ([5]; 313 K) was 2400 M⁻¹, the Kd ([5]; 313 K) was 400 ± 7 µM and the “-ΔG°” value ([5]; 323K) was 19.87 k J mol^-1. For the same compound, the K a ([5]; 323K) was 1600 M⁻¹, the Kd ([5]; 323K) was 600 ± 2 µM and the “-ΔG°” value ([5]; 333K) was 18.54 k J mol^-1. For the same compound, the K a ([5]; 333K) was 810 M⁻¹, the Kd ([5]; 333K) was 1200 ± 30 µM and the “Maximal quenching of intrinsic HPA fluorescence” value ([5]; 350 nm, azadiradione 3.9–118 μM, gedunin 2.0–51.86 μM) was 33%. The “Maximum ΔG° of binding” value ([5]; calculated from binding constants, maximal affinity at 298 K) was -5.079 kcal/mol, the “Enthalpy (ΔHvH)” value [5, 9] was -10 kcal/mol and the “Entropy (-ΔS)” value [5, 9] was 70.09 J mol^-1K^-1. The Cell death [6] was 8.6%, the IC50 at 24 h [7] was 11.1 µM and the “Cell morphology versus controls” value [8] was “no morphological change”.
